Columns and labels:
[1] = molecular target: 5-hydroxytryptamine receptor 1E (Homo sapiens, UniProt P28566); experiment: Displacement of [3H]5-HT from human 5-HT1E receptor expressed in HEK cells measured after 90 mins by microbeta scintillation counting method; format: cell-based, HEK293
[2] = molecular target: Alpha-1D adrenergic receptor (Homo sapiens, UniProt P25100); experiment: Displacement of [3H]Prazosin from human Alpha1D receptor measured after 90 mins by microbeta scintillation counting method
Sequence of Alpha-1D adrenergic receptor (P25100 whole entry): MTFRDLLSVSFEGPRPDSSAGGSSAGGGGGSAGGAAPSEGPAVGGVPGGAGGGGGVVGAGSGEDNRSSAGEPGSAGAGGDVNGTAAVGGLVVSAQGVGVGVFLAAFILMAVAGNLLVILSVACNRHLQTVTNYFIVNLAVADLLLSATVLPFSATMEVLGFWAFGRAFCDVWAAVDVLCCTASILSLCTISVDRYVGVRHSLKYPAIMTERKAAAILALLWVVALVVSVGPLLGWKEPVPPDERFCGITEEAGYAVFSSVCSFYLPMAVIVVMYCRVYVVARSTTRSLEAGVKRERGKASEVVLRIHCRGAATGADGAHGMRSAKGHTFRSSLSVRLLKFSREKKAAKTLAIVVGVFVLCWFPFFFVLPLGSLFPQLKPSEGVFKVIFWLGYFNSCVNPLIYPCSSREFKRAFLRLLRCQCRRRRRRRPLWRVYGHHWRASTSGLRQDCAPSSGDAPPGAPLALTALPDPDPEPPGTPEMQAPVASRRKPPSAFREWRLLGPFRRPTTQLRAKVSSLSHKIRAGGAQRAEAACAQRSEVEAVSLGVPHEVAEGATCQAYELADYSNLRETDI

[3] = molecular target: 5-hydroxytryptamine receptor 6 (Homo sapiens, UniProt P50406); experiment: Displacement of [3H]LSD from human 5-HT6 receptor expressed in HEK cells measured after 90 mins by microbeta scintillation counting method; format: cell-based, HEK293
[4] = molecular target: Delta-type opioid receptor (Homo sapiens, UniProt P41143); experiment: Displacement of [3H]DADLE from human DOR expressed in HEK cells measured after 90 mins by microbeta scintillation counting method; format: cell-based, HEK293
[5] = molecular target: Muscarinic acetylcholine receptor M1 (Homo sapiens, UniProt P11229); experiment: Binding affinity to human M1 receptor expressed in CHO cells measured after 90 mins by radioligand binding assay; format: cell-based
[6] = molecular target: Alpha-1B adrenergic receptor (Homo sapiens, UniProt P35368); experiment: Displacement of [3H]Prazosin from human Alpha1B receptor expressed in HEK-T cells measured after 90 mins by microbeta scintillation counting method; format: cell-based
[7] = molecular target: 5-hydroxytryptamine receptor 2A (Homo sapiens, UniProt P28223); experiment: Displacement of [3H]Ketanserin from 5-HT2A receptor (unknown origin) measured after 90 mins by microbeta scintillation counting method
Sequence of 5-hydroxytryptamine receptor 2A (P28223 whole entry): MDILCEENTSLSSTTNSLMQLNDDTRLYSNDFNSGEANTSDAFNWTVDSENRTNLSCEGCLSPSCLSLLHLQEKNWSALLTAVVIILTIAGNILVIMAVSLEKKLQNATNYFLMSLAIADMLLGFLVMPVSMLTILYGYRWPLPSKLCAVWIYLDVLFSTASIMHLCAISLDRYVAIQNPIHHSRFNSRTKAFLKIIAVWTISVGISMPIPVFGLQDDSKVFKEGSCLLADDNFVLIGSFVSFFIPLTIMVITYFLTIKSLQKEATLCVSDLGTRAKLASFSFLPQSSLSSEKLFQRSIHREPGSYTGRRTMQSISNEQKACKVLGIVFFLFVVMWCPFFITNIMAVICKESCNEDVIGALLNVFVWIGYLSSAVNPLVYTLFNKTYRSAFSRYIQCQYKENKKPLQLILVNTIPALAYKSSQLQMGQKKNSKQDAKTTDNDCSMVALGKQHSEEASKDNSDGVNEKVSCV

[8] = molecular target: 5-hydroxytryptamine receptor 1D (Homo sapiens, UniProt P28221); experiment: Displacement of [3H]5-CT from human 5-HT1D receptor expressed in HEK-T cells measured after 90 mins by microbeta scintillation counting method; format: cell-based
Sequence of 5-hydroxytryptamine receptor 1D (P28221 whole entry): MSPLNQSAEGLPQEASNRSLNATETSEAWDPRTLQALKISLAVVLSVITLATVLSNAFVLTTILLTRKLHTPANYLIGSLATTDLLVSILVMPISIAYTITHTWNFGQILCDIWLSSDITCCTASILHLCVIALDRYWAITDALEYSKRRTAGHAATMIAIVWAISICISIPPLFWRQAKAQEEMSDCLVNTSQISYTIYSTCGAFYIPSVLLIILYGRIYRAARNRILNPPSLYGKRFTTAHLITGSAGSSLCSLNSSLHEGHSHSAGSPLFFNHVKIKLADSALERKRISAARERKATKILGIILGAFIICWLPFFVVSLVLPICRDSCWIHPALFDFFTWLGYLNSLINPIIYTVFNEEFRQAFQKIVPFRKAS

[9] = molecular target: Beta-2 adrenergic receptor (Homo sapiens, UniProt P07550); experiment: Displacement of [3H]CGP12177 from human beta2 receptor expressed in HEK Flp-In cells measured after 90 mins by microbeta scintillation counting method; format: cell-based, HEK293
[10] = molecular target: 5-hydroxytryptamine receptor 1B (Homo sapiens, UniProt P28222); experiment: Displacement of [3H]5-CT from human 5-HT1B receptor expressed in HEK cells measured after 90 mins by microbeta scintillation counting method; format: cell-based, HEK293
Sequence of 5-hydroxytryptamine receptor 1B (P28222 whole entry): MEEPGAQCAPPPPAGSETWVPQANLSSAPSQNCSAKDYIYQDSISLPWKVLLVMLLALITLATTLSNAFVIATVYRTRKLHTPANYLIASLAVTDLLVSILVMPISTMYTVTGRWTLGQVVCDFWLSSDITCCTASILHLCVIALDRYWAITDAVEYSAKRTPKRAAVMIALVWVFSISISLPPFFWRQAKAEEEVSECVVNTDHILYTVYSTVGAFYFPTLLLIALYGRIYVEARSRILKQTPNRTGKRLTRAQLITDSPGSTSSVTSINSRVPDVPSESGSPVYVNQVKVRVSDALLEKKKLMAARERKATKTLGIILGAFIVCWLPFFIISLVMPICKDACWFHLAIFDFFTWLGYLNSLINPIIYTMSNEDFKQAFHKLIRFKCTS

[11] = molecular target: Muscarinic acetylcholine receptor M4 (Homo sapiens, UniProt P08173); experiment: Binding affinity to human M4 receptor expressed in CHO cells measured after 90 mins by radioligand binding assay; format: cell-based
[12] = molecular target: Alpha-1A adrenergic receptor (Homo sapiens, UniProt P35348); experiment: Displacement of [3H]Prazosin from human Alpha1A receptor measured after 90 mins by microbeta scintillation counting method
[13] = molecular target: Sigma non-opioid intracellular receptor 1 (Cavia porcellus) (UniProt Q60492); details: 10 uM
D(1B) dopamine receptor = D(1B) dopamine receptor (Homo sapiens, UniProt P21918); experiment: Displacement of [3H]SCH23390 from human D5 receptor expressed in HEK-T cells measured after 90 mins by microbeta scintillation counting method; format: cell-based
Sequence of D(1B) dopamine receptor (P21918 whole entry): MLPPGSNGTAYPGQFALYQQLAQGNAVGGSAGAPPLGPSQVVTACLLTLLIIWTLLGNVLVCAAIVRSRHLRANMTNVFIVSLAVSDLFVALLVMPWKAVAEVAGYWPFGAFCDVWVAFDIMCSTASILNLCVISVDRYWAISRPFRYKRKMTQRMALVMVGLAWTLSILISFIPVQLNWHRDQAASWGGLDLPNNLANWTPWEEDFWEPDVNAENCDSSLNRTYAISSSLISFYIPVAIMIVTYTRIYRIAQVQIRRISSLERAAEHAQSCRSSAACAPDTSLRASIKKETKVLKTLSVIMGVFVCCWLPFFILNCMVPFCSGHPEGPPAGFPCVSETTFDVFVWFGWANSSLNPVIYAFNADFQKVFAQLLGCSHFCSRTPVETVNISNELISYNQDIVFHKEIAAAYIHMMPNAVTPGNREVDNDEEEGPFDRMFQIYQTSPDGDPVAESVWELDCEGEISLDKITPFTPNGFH

Histamine H1 receptor = Histamine H1 receptor (Homo sapiens, UniProt P35367); experiment: Displacement of [3H]Pyrilamine from human H1 receptor expressed in HEK cells measured after 90 mins by microbeta scintillation counting method; format: cell-based, HEK293
[14] = molecular target: Alpha-2A adrenergic receptor (Homo sapiens, UniProt P08913); experiment: Displacement of [3H]Rauwolscine from human Alpha2A receptor expressed in MDCK cells measured after 90 mins by microbeta scintillation counting method; format: cell-based
[15] = molecular target: 5-hydroxytryptamine receptor 3A (Homo sapiens, UniProt P46098); experiment: Displacement of [3H]GR65630 from human 5-HT3 receptor expressed in HEK-T cells measured after 90 mins by microbeta scintillation counting method; format: cell-based
[16] = molecular target: 5-hydroxytryptamine receptor 2C (Homo sapiens, UniProt P28335); experiment: Displacement of [3H]Mesulergine from human 5-HT2C receptor expressed in Flp-IN HEK cells measured after 90 mins by microbeta scintillation counting method; format: cell-based, HEK293
D(1A) dopamine receptor = D(1A) dopamine receptor (Homo sapiens, UniProt P21728); experiment: Displacement of [3H]SCH23390 from human D1 receptor expressed in HEK-T cells measured after 90 mins by microbeta scintillation counting method; format: cell-based
Sequence of D(1A) dopamine receptor (P21728 whole entry): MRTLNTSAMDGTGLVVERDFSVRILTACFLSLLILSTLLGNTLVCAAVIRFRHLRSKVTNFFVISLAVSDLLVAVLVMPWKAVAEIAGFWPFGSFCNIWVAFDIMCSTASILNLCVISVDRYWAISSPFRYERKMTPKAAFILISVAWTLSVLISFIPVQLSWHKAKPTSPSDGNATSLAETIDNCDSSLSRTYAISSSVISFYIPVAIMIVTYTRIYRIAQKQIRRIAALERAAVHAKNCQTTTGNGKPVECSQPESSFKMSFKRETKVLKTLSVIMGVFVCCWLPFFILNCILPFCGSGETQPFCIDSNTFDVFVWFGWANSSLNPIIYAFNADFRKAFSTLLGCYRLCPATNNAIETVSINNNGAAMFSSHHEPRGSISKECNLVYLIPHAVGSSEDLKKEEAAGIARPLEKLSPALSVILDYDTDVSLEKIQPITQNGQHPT

PC-12 = experiment: Selectivity ratio of Ki for sigma2 receptor in rat PC12 cells to Ki for guinea pig sigma1 receptor; format: cell-based
Histamine H3 receptor = Histamine H3 receptor (Homo sapiens, UniProt Q9Y5N1); experiment: Displacement of [3H]alpha-methylhistamine from human H3 receptor expressed in HEK Flp-In cells measured after 90 mins by microbeta scintillation counting method; format: cell-based, HEK293
Mu-type opioid receptor = Mu-type opioid receptor (Homo sapiens, UniProt P35372); experiment: Displacement of [3H]DAMGO from human MOR expressed in HEK cells after 90 mins by microbeta scintillation counting method; format: cell-based, HEK293
[17] = molecular target: T1, 5-hydroxytryptamine receptor 1A (Homo sapiens, UniProt P08908); experiment: Displacement of [3H]Way100635 from human 5-HT1A receptor expressed in CHO cells measured after 90 mins by microbeta scintillation counting method; format: cell-based
T1 sequence (P08908 whole entry): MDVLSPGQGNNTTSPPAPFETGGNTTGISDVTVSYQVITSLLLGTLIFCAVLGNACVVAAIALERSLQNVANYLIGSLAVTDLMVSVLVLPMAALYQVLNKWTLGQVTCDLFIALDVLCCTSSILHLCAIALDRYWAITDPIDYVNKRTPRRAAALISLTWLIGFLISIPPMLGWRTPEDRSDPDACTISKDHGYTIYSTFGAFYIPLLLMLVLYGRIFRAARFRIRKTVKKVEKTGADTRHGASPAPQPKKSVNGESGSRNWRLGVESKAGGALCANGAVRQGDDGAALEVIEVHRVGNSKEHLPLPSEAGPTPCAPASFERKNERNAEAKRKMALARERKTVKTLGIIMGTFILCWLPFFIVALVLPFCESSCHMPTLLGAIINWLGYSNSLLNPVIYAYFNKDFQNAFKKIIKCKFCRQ

[18] = molecular target: 5-hydroxytryptamine receptor 7 (Homo sapiens, UniProt P34969); experiment: Displacement of [3H]LSD from human 5-HT7 receptor expressed in HEK cells measured after 90 mins by microbeta scintillation counting method; format: cell-based, HEK293
[19] = molecular target: Muscarinic acetylcholine receptor M5 (Homo sapiens, UniProt P08912); experiment: Binding affinity to human M5 receptor expressed in CHO cells measured after 90 mins by radioligand binding assay; format: cell-based
Sequence of Muscarinic acetylcholine receptor M5 (P08912 whole entry): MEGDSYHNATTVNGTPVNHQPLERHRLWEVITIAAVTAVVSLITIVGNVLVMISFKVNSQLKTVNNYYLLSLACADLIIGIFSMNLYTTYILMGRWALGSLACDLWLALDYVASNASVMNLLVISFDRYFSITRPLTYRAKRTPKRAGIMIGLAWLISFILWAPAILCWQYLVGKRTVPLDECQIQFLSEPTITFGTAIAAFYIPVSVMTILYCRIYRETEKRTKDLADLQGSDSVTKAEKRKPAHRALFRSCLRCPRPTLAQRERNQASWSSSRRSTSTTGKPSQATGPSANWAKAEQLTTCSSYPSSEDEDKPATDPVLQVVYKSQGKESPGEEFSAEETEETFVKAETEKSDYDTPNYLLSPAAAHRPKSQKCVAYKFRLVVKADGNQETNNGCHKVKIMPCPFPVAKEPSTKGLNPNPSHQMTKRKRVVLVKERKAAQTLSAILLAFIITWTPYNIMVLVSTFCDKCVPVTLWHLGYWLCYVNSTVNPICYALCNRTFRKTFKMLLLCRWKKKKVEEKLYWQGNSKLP

[20] = molecular target: 5-hydroxytryptamine receptor 5A (Homo sapiens, UniProt P47898); experiment: Displacement of [3H]LSD from human 5-HT5A receptor expressed in Flp-In CHO cells measured after 90 mins by microbeta scintillation counting method; format: cell-based
Sequence of 5-hydroxytryptamine receptor 5A (P47898 whole entry): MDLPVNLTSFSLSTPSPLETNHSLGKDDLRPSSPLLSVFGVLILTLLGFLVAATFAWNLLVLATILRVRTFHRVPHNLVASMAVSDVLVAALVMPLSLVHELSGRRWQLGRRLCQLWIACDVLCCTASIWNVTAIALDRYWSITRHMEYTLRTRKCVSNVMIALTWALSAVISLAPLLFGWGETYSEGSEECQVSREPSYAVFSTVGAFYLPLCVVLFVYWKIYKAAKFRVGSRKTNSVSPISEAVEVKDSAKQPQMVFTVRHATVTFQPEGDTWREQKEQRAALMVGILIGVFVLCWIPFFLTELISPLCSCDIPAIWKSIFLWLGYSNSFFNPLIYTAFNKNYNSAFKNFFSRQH

[21] = molecular target: Sodium-dependent dopamine transporter (Homo sapiens, UniProt Q01959); experiment: Displacement of [3H]WIN35428 from human DAT expressed in HEK cells measured after 90 mins by microbeta scintillation counting method; format: cell-based, HEK293
Histamine H4 receptor = Histamine H4 receptor (Homo sapiens, UniProt Q9H3N8); experiment: Displacement of [3H]Histamine from H4 receptor (unknown origin) measured after 90 mins by microbeta scintillation counting method
Sequence of Histamine H4 receptor (Q9H3N8 whole entry): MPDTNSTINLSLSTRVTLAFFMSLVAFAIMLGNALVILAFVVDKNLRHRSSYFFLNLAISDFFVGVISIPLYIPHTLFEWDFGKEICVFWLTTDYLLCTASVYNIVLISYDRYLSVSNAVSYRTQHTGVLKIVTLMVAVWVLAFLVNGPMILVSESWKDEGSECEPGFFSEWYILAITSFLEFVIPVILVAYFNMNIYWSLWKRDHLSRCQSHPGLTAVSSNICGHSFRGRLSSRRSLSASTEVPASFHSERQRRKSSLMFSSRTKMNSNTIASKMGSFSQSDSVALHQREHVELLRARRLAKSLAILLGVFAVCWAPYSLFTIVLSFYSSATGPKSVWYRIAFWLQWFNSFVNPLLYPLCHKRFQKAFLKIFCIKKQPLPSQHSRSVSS

[22] = molecular target: Alpha-2B adrenergic receptor (Homo sapiens, UniProt P18089); experiment: Displacement of [3H]Rauwolscine from human Alpha2B receptor expressed in HEK-T cells measured after 90 mins by microbeta scintillation counting method; format: cell-based
Sequence of Alpha-2B adrenergic receptor (P18089 whole entry): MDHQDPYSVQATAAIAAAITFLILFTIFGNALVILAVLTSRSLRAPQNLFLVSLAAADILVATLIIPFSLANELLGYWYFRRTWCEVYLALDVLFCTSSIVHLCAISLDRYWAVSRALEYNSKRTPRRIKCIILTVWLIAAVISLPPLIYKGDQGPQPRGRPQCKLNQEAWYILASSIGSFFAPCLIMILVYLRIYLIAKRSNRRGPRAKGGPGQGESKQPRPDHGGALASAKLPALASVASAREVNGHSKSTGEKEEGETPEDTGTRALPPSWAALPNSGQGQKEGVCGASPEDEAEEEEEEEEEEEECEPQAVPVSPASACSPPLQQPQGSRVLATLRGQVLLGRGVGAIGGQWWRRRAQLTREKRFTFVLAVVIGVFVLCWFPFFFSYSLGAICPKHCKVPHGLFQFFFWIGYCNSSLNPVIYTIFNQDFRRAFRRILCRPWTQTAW

Sequence of 5-hydroxytryptamine receptor 1E (P28566 whole entry): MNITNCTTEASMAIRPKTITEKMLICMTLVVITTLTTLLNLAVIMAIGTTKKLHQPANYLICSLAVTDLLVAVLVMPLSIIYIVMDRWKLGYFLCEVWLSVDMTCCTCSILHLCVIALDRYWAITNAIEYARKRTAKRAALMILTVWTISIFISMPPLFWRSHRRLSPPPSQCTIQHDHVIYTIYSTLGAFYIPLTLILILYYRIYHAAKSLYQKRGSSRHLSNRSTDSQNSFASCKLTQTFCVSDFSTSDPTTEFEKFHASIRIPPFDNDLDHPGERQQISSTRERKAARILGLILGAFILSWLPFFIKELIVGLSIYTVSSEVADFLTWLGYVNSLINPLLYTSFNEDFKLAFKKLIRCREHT

Which Ki [1] does the source give for `CN1CC[C@H]2CC(=O)[C@H](Cc3ccccc3)[C@H]3CCC[C@@H]1[C@H]23` here?
The Ki was over 10 µM.

What about the Ki [2] of the same compound?
The Ki was over 10 µM.

And the Ki [3]?
The Ki was over 10 µM.

And the Ki [4]?
Its Ki is over 10 µM.

What about the Ki [5] of the same compound?
Its Ki is over 10 µM.

What about the Ki [6] of the same compound?
Its Ki is over 10 µM.

What about the Ki [7] of the same compound?
The Ki was over 10 µM.

What about the Ki [8] of the same compound?
The Ki was over 10 µM.

And the Ki [9]?
Its Ki is over 10 µM.

What about the Ki [10] of the same compound?
The Ki was over 10 µM.

And the Ki [11]?
Its Ki is over 10 µM.

What about the Ki [12] of the same compound?
Its Ki is over 10 µM.

What about the inhibition [13] of the same compound?
Its inhibition is over 50%.

And the Ki (D(1B) dopamine receptor)?
Its Ki is over 10 µM.

What about the Ki (Histamine H1 receptor) of the same compound?
Its Ki is over 10 µM.

And the Ki [14]?
The Ki was over 10 µM.

What about the Ki [15] of the same compound?
Its Ki is over 10 µM.

What about the Ki [16] of the same compound?
Its Ki is 1.68 µM.

And the Ki (D(1A) dopamine receptor)?
Its Ki is over 10 µM.

And the Ratio Ki (PC-12)?
Its Ratio Ki is 98.7.

And the Ki (Histamine H3 receptor)?
The Ki was 0.814 µM.

What about the Ki (Mu-type opioid receptor) of the same compound?
Its Ki is over 10 µM.

What about the Ki [17] of the same compound?
The Ki was over 10 µM.

And the Ki [18]?
The Ki was over 10 µM.

And the Ki [19]?
The Ki was 3.49 µM.

What about the Ki [20] of the same compound?
The Ki was over 10 µM.

And the Ki [21]?
Its Ki is 2.18 µM.

And the Ki (Histamine H4 receptor)?
The Ki was over 10 µM.

And the Ki [22]?
The Ki was over 10 µM.

Which Ki [1] does the source give for `CCCN1CC[C@H]2c3cc4ccc(C(F)(F)F)cc4nc3[C@H](CC)[C@H]3CCC[C@@H]1[C@@H]32` here?
The Ki was over 10 µM.

And the Ki [2]?
Its Ki is over 10 µM.

And the Ki [3]?
The Ki was over 10 µM.

And the Ki [4]?
Its Ki is over 10 µM.

What about the Ki [5] of the same compound?
Its Ki is over 10 µM.

What about the Ki [6] of the same compound?
The Ki was over 10 µM.

What about the Ki [7] of the same compound?
The Ki was over 10 µM.

What about the Ki [8] of the same compound?
The Ki was over 10 µM.

And the Ki [9]?
The Ki was over 10 µM.

What about the Ki [10] of the same compound?
The Ki was over 10 µM.

And the Ki [11]?
The Ki was over 10 µM.

And the Ki [12]?
Its Ki is over 10 µM.

And the inhibition [13]?
The inhibition was over 50%.

And the Ki (D(1B) dopamine receptor)?
The Ki was over 10 µM.

And the Ki (Histamine H1 receptor)?
The Ki was over 10 µM.

What about the Ki [14] of the same compound?
The Ki was 1.59 µM.

And the Ki [15]?
Its Ki is over 10 µM.

What about the Ki [16] of the same compound?
The Ki was over 10 µM.

What about the Ki (D(1A) dopamine receptor) of the same compound?
Its Ki is over 10 µM.

And the Ratio Ki (PC-12)?
The Ratio Ki was 0.04.

What about the Ki (Histamine H3 receptor) of the same compound?
Its Ki is over 10 µM.

What about the Ki (Mu-type opioid receptor) of the same compound?
The Ki was 2.36 µM.

What about the Ki [17] of the same compound?
The Ki was over 10 µM.

And the Ki [18]?
Its Ki is over 10 µM.

And the Ki [19]?
The Ki was over 10 µM.

And the Ki [20]?
Its Ki is over 10 µM.

And the Ki [21]?
Its Ki is over 10 µM.

And the Ki (Histamine H4 receptor)?
Its Ki is over 10 µM.

And the Ki [22]?
The Ki was 1.04 µM.

Source: ChEMBL document CHEMBL3868615, “Decahydrobenzoquinolin-5-one sigma receptor ligands: Divergent development of both sigma 1 and sigma 2 receptor selective examples” (Bioorg Med Chem Lett, 2016)
